Where two headings read alike, the source gives them in different places.
What was measured:
[1] = serum magnesium level, magon dye method; assay type: in vivo, swine; settings: in words, FIG. 5
Method: Serum magnesium levels for the test subjects were measured spectrophotometrically using the magon dye method. See Elm R J, Determination of serum magnesium concentration by clinical laboratories, […], 1991-92:60-6.

[2] = activated clotting time (ACT), Hemochron 400; assay type: in vivo, swine
Method: In the experiment discussed herein that was conducted according to one embodiment of the present invention, ACT was determined using a Hemochron 400 (International Technidyne Corp.) machine in standard fashion. See Makkar R R, Litvack F, Eigler N L, Nakamura M, Ivey P A, Forrester J S, Shah P K, Jordan R E, Kaul S, Effects of GP IIb/IIIa Receptor Monoclonal Antibody (7E3), Heparin, and Aspirin in an Ex Vivo Canine Arteriovenous Shunt Model of Stent Thrombosis, Circulation, 1997; 95(4): 1015-1021; and Makkar R R, Eigler N L, Kaul S, Nakamura M, Forrester J S, Herbert J-M, Litvack F I, Effects of clopidogrel, aspirin and combined therapy in a porcine ex vivo model of high-shear induced stent thrombosis, Eur Heart J, 1998; 19:1538-1546.

platelet aggregation = assay: whole blood aggregometry, agonist-induced platelet aggregation; assay type: cell-based, swine; settings: for platelet aggregation: 3 pigs
Method: Thirty minutes after administration of the heparin (in the heparin alone) or magnesium, 3 mL venous blood was collected in a siliconized test tube containing 0.3 mL of 0.129 molar sodium citrate or sodium heparin (Becton Dickinson Vacutainer System). Whole blood aggregometry (Chronolog Corp.) was used to measure collagen (2 and 5 μg/mL)- and Adenosine diphosphate (2.5 μM)-induced platelet aggregation. Aggregation was expressed as maximal increase in electrical impedance measured in ohms at 6 minutes after the addition of agonist.

[3] = magnesium sulfate intravenously, ANOVA
Method: The graph in FIG. 3 was generated by taking between 10 and 14 observations at each time point. The MABP was measured in millimeters of mercury (mmHg). The heart rate was measured in beats per minute (BPM).

platelets = settings: cited from earlier work
[4] = bleeding time from thigh incision; assay type: in vivo, swine
Method: Bleeding time is defined as the time from the creation of an incision to the point where bleeding from the incision ceases. In the experiment according to one embodiment of the present invention discussed herein, bleeding time was measured from an incision on the ventral surface of the thigh with a No. 11 surgical knife.

in-stent thrombosis = test system: in-stent thrombosis
Method: (§1) Twenty one low-risk patients undergoing non-acute percutaneous coronary intervention with stent implantation received a two gm bolus of intravenous MgSO4 followed by a 1.5 gm/hour infusion for four hours and a 1 gm/hour infusion for the next eight hours. […] The preset primary endpoints for this experiment were: acute thrombotic occlusion and need for platelet IIb/IIIa inhibitors bailout, death, myocardial infarction, recurrent ischemia and need for urgent revascularization at 48 hours and 30 days. The secondary safety endpoints included hypotension, bradycardia, bleeding complications and heart block within the first 24 hours.

[5] = Method: as §1
[6] = complete blood cell count; settings: data not shown
[7] = in vivo
Method: (§2) Experiments were performed in 10 swine weighing 25 to 30 kg. […] The right carotid artery and jugular vein were isolated and cannulated with 8F sheaths to establish an extracorporeal circuit as described previously. […] Arterial blood gases and pH were monitored periodically and maintained at normal levels by adjustment of the ventilation rate and tidal volume. Invasive arterial pressure measurement, oxygen saturation, ECG, and rectal temperature were monitored continuously. A thermostatically controlled blanket was used to maintain temperature at 37° C. Venous blood was collected for baseline platelet aggregation, complete blood cell count, and activated clotting time (ACT) measurements.
All animals received heparin at a dose of 10 U/kg as a bolus before the study to prevent thrombotic occlusion of catheters and tubing. […] At the conclusion of the experiment, blood was collected for complete blood cell counts, the carotid artery and jugular vein were ligated, and the animals were allowed to recover from anesthesia before being returned to the vivarium. Each animal was studied twice with a minimum interval of 2 weeks between each experiment.
At the end of each treatment, control stents were perfused to ensure return of stent thrombus weights towards baseline pre-treatment values. Effects on thrombus weight (TW), whole-blood platelet aggregation (PA), bleeding time (BT), activated clotting time (ACT), serum magnesium level, and complete blood count (CBC) were quantified at various time points as shown in the protocol schematic. Mean arterial blood pressure (MABP) and heart rate (HR) were monitored and recorded throughout the protocol.

[8] = test system: acute platelet-dependent stent thrombosis; assay: ex-vivo porcine arteriovenous shunt model of high-shear stent thrombosis (thrombus weight); assay type: in vivo, swine
Method: An experiment according to one embodiment of the present invention was performed using an ex-vivo model that primarily examines shear-mediated, platelet-dependent thrombus formation. This experiment allowed for the evaluation of the effects of magnesium, and the time-dependent nature thereof, on acute platelet-dependent stent thrombosis in an ex-vivo porcine arteriovenous shunt model of high-shear blood flow.
as §2
All animals received heparin at a dose of 10 U/kg as a bolus before the study to prevent thrombotic occlusion of catheters and tubing. […]

[9] = test system: acute platelet-dependent stent thrombosis; settings: 10 U/kg bolus, average of 200 U per swine; cited from earlier work
[10] = in words, beyond the heparin effect

Question: What does the source list for `O=S(=O)([O-])[O-].[Mg+2]` [Mg, magnesium sulfate]?
Answer: serum magnesium levels compared to control [1]: higher; effect on activated clotting time (ACT) [2, 10]: no significant effects; effect on platelet aggregation (platelet aggregation; ADP (2.5 μM), data not shown): no effect; whole-blood platelet aggregation (platelet aggregation; FIG. 5, 5 μg/mL collagen, with addition of magnesium, from 25±3, not significant): 21±5 ohms; platelet aggregation (maximal increase in electrical impedance) (platelet aggregation; Mg-late alone, 6 minutes after agonist, baseline 25±3): 22±3 ohms; platelet aggregation (maximal increase in electrical impedance) (platelet aggregation; Mg-treated animals, >40 minutes post-bolus (Mg-late)): 21.0±5 ohms; platelet aggregation (maximal increase in electrical impedance) (platelet aggregation; Mg-treated animals, within 20 minutes post-bolus (Mg-early)): 23±4 ohms; platelet aggregation (platelet aggregation; citrate-stabilized blood, post-Mg (25±3 pre)): 22±3 ohms; effect on platelet aggregation (platelet aggregation; collagen 2 μg/ml, data not shown): no effect; platelet aggregation (platelet aggregation; heparin-stabilized samples, post-Mg (26±2 pre)): 27±2 ohms; effect on platelet aggregation (platelet aggregation; in words, listed as Magnesium): no significant effects; effect on platelet aggregation (platelet aggregation; in words, listed as magnesium): no significant effect; effect on heart rate ([3]; listed as Magnesium): no significant effects; effect on mean arterial blood pressure (MABP) ([3]; listed as Magnesium): no significant effects; effect on heart rate ([3]; listed as magnesium): no statistically significant effects; effect on mean arterial blood pressure (MABP) ([3]; listed as magnesium): no statistically significant effects; concentration at which anti-adhesive effect may occur (platelets): < 4 mEq/L; concentration at which anti-aggregatory effect may occur (platelets): > 5 mEq/L; effect on bleeding time [4, 10]: no significant effects; GP IIb/IIIa inhibitors bailout (in-stent thrombosis; 21 patients): no case; death (in-stent thrombosis; 21 patients): not seen; myocardial infarction (in-stent thrombosis; 21 patients): not seen; urgent revascularization (in-stent thrombosis; 21 patients): not seen; coronary artery blood flow at end of intervention (in-stent thrombosis; all cases, 21 patients): normal coronary artery blood flow (TIMI 3 flow); hemostatic or hemodynamic complications (in-stent thrombosis; human subjects): without any hemostatic or hemodynamic complications; effect on heart rate ([5]; patients, IV MgSO4): did not have a significant effect; effect on mean arterial blood pressure ([5]; patients, IV MgSO4): did not have a significant effect; serum magnesium level ([5]; post-bolus (2 gm IV MgSO4), baseline 2.1±0.3, P<0.0001): 3.2 ± 0.3 mg/dL; serum magnesium level ([5]; post-infusion (total 16 gm)): 3.5 ± 0.8 mg/dL; effect on hematocrit [6]: no significant effects; effect on platelet counts [6]: no significant effects; effect on white blood cell counts [6]: no significant effects

Question: With heparin as the compound, how does the effect on hematocrit [7] read?
Answer: no significant effects

Question: What about the “effect on platelet counts” value [7] of the same compound?
Answer: no significant effects

Question: And the “effect on white blood cell counts” value [7]?
Answer: no significant effects

Question: And the ACT ([2]; prolonged from 109±8 seconds, P<0.01)?
Answer: 185 ± 36 s

Question: And the “platelet aggregation (maximal increase in electrical impedance)” value (platelet aggregation; heparin alone, 6 minutes after agonist, baseline 25±3)?
Answer: 24±6 ohms

Question: What about the bleeding time ([4]; in vivo) of the same compound?
Answer: 5.3±0.6

Question: And the “effect on thrombus formation (FIG. 2(a))” value ([8]; given alone, magnesium both early and late groups)?
Answer: reduce thrombus formation slightly

Question: And the “reduction of stent thrombus weight (TW)” value ([8]; heparin alone, 50 U/kg IV bolus then 25-50 U/kg/hr, versus pre-treatment, mean±SD)?
Answer: 48±16%

Question: And the “effect on thrombus formation at high-shear conditions” value [9]?
Answer: negligible effects
